In ChEMBL document CHEMBL1132815, “16Beta-hydroxy-5alpha-cholestane-3,6-dione, a novel cytotoxic oxysterol from the red alga Jania rubens” (2000):
Values after ≈ are worked out from the molar mass of the structure shown.

What was measured:
[1] = tested on: KB; experiment: Cytotoxicity (dichloromethane extract) was evaluated against KB tumor cell line; assay type: functional; settings: Homo sapiens, read-out: ID50 (the source's name)
[2] = tested on: KB; experiment: Cytotoxicity (extracted with dichloromethane-methanol) was evaluated against KB tumor cell line; assay type: functional; settings: Homo sapiens, read-out: ID50 (the source's name)

Compound: CC(C)CCC[C@@H](C)[C@H]1[C@@H](O)C[C@H]2[C@@H]3CC(=O)[C@H]4CC(=O)CC[C@]4(C)[C@H]3CC[C@]12C
- IC50 [1]: 5 µg/mL (≈ 12 µM)
- IC50 [2]: 0.5 µg/mL (≈ 1.2 µM)
